Assay results published in US8247532B2, “Deuterated hepatitis C protease inhibitors” (Vertex Pharmaceuticals Incorporated, priority 2006, dated 2012).

Tests used:
[1] = format: in vitro ADME; conditions: human
Description: (§1) The epimerization rate was measured according to the following assay. Specifically, 100 μL medium (buffer, rat plasma, dog plasma, or human plasma) was added into a 96-well deep plate. To the plasma was then added 10 μL acetonitrile solution containing a test compound (1S,3aR,6aS)-2-((S)-2-((S)-2-cyclohexyl-2-(pyrazine-2-carboxamido)acetamido)-3,3-dimethylbutanoyl)-N—((S)-1-(cyclopropylamino)-1,2-dioxo-3-deutero-hexan-3-yl)octahydrocyclopenta[c]pyrrole-1-carboxamide (at 1 uM or 10 uM) and 1200 μL ethyl acetate into the 96 deep-well plate (2 mL) by using a TomTec liquid handling workstation (Hamden, Conn., USA). The plate was then covered tightly and shaken with a vortex for 20 minutes before it was centrifuged at 3000 rpm for 10 minutes. After centrifuge, 900 μL of the supernatant was transferred to a new V-shape 96 deep-well plate using TomTec, and then dried under nitrogen gas (flow rate of 60 L/min) at 25° C. for about 30 minutes. The residue was reconstituted with 100 μL ethyl acetate, and the solution was again transferred into the glass inserts in the 96-well plate. 20 uL of the reconstituted solution was injected into LC-MS/MS to determine the amount of the epimers. The LC-MS/MS spectrometer used a ChiralPak AD Column (4.6×150 mm, 10 μm), a mixture of isopropanol and n-heptane (10:90, 50:50, or 90:10) as the mobile phase, and isopropanol as the washing solvent. […]

[2] = Epimerization rate assay in buffer; format: physicochemical; conditions: 1 uM and 10 uM
Description: as §1

Compound: [2H][C@@](CCC)(NC(=O)[C@@H]1[C@H]2CCC[C@H]2CN1C(=O)[C@@H](NC(=O)[C@@H](NC(=O)c1cnccn1)C1CCCCC1)C(C)(C)C)C(=O)C(=O)NC1CC1 [deuterated compound, (1S,3aR,6aS)-2-((S)-2-((S)-2-cyclohexyl-2-(pyrazine-2-carboxamido)acetamido)-3,3-dimethylbutanoyl)-N—((S)-1-(cyclopropylamino)-1,2-dioxo-3-deutero-hexan-3-yl)octahydrocyclopenta[c]pyrrole-1-carboxamide]
- time course (shape) of epimerization [1]: linear rate for 180 minutes
- epimerization rate compared with non-deuterated form [2]: slower epimerization rate
